Measured values as given in the supplement of paper PMC10331698.
± gives the standard deviation of the averaged measurements.

Tests used:
Assay in all cases: level (log10 ratio to DMSO vehicle control); higher = higher biomarker level / cell amount than vehicle control
Settings in all cases: in DMSO
[1] = compound: C=CC(=O)OCCC(F)(F)C(F)(F)C(F)(F)C(F)(F)F [2-(Perfluorobutyl)ethyl acrylate]
Protocol: (§1)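 BioMAP Diversity Plus panel of 12 human primary cell co-culture systems (3C, 4H, LPS, SAg, BT, BF4T, BE3C, CASM3C, HDF3CGF, KF3CT, MyoF, Mphg). Compounds were added 1 h before stimulation and left for 24 h (MyoF 48 h; BT 72 h for soluble read-outs or 6 d for IgG). Biomarkers were read by ELISA, cytotoxicity by SRB, PBMC viability and proliferation by Alamar Blue. Each well value was divided by the mean of 8 DMSO control wells on the same plate and log10 transformed; duplicate blinded samples were tested at 4 concentrations.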

[2] = compound: N=C(N)C(F)(F)C(F)(F)C(F)(F)C(F)(F)C(F)(F)C(F)(F)C(F)(F)F [Perfluorooctanamidine]
Protocol: as §1

[3] = compound: O=C(O)C(F)(F)C(F)(F)C(F)(F)C(F)(F)C(F)(F)C(F)(F)C(F)(F)C(F)(F)C(F)(F)C(F)(F)C(F)(F)C(F)(F)F [Perfluorotridecanoic acid]
Protocol: as §1

[4] = compound: O=C(O)C(F)(F)C(F)(F)C(F)(F)C(F)(F)C(F)(F)F [Perfluorohexanoic acid]
Protocol: as §1

[5] = compound: O=P(O)(O)CCC(F)(F)C(F)(F)C(F)(F)C(F)(F)C(F)(F)C(F)(F)C(F)(F)C(F)(F)F [((Perfluorooctyl)ethyl)phosphonic acid]
Protocol: as §1

[6] = compound: O=S(=O)(O)C(F)(F)C(F)(F)C(F)(F)C(F)(F)C(F)(F)C(F)(F)C(F)(F)C(F)(F)F [Potassium perfluorooctanesulfonate]
Protocol: as §1

Test System | level (log10) ([1]; 6700 nM) | level (log10) ([1]; 20000 nM) | level (log10) ([1]; 60000 nM) | level (log10) ([2]; 6700 nM) | level (log10) ([2]; 20000 nM) | level (log10) ([2]; 60000 nM) | level (log10) ([3]; 1500 nM) | level (log10) ([3]; 4400 nM) | level (log10) ([3]; 13000 nM) | level (log10) ([3]; 40000 nM) | level (log10) ([4]; 6700 nM) | level (log10) ([4]; 20000 nM) | level (log10) ([4]; 60000 nM) | level (log10) ([5]; 6700 nM) | level (log10) ([5]; 20000 nM) | level (log10) ([5]; 60000 nM) | level (log10) ([6]; 6700 nM) | level (log10) ([6]; 20000 nM) | level (log10) ([6]; 60000 nM)
CASM3C:PAI-I | 0.0105 ± 0.021 | -0.0035 ± 0.011 | 0 ± 0.013 | 0.0055 ± 0.012 | 0.0015 ± 0.0064 | 0.022 | 0.005 ± 0.0085 | 0 ± 0.011 | 0.0135 ± 0.013 | 0.01 ± 0.0057 | 0.0005 ± 0.005 | -0.003 ± 0.0042 | 0.0095 ± 0.005 | -0.0035 ± 0.011 | 0.003 ± 0.0071 | 0.0015 ± 0.0078 | 0.009 | 0.004 | 0.0165 ± 0.0064
CASM3C:Proliferation | -0.0375 ± 0.06 | -0.0315 ± 0.069 | -0.123 ± 0.084 | 0.0185 ± 0.0078 | 0.0085 ± 0.0035 | -0.062 | 0.02 ± 0.016 | -0.0055 ± 0.036 | 0.0085 ± 0.026 | -0.013 ± 0.0014 | -0.001 ± 0.018 | -0.065 | -0.0055 ± 0.015 | -0.0545 ± 0.005 | -0.062 ± 0.044 | -0.101 ± 0.03 | -0.0125 ± 0.033 | 0.006 ± 0.042 | 0.023 ± 0.0099
MyoF:PAI-I | -0.003 ± 0.0071 | 0.001 ± 0.023 | 0.0005 ± 0.018 | 0.0015 ± 0.0064 | -0.0075 ± 0.013 | 0.021 | 0.013 ± 0.013 | -0.002 | -0.0035 ± 0.00071 | 0.012 ± 0.0085 | 0.0025 ± 0.005 | 0.002 ± 0.0028 | 0.009 | -0.0215 ± 0.0092 | -0.0075 ± 0.0064 | -0.0285 ± 0.035 | 0.003 ± 0.025 | -0.006 ± 0.0014 | -0.0065 ± 0.0064
KF3CT:CD54/ICAM-1 | -0.0085 ± 0.0092 | -0.0245 ± 0.0078 | -0.054 ± 0.0099 | 0.0055 ± 0.033 | 0.0175 ± 0.022 | 0.064 | -0.03 ± 0.013 | -0.019 | -0.0285 ± 0.026 | 0.015 ± 0.017 | 0.0055 ± 0.0064 | -0.002 ± 0.013 | -0.007 ± 0.011 | 0.019 ± 0.034 | 0.013 ± 0.018 | -0.0055 ± 0.049 | -0.0165 ± 0.021 | 0.0075 ± 0.011 | 0.002 ± 0.027
lMphg:CXCL8/IL-8 | 0.013 ± 0.014 | 0.0045 ± 0.0021 | 0.0055 ± 0.0078 | 0.011 | 0.0425 ± 0.019 | 0.175 | -0.0575 ± 0.0021 | -0.0665 ± 0.012 | -0.0245 ± 0.00071 | -0.0175 ± 0.021 | 0.045 ± 0.024 | 0.0515 ± 0.036 | 0.074 ± 0.023 | -0.0105 ± 0.025 | 0.0115 ± 0.028 | 0.148 ± 0.084 | -0.0435 ± 0.005 | 0.0135 ± 0.03 | 0.094 ± 0.0028
HDF3CGF:Collagen I | -0.065 ± 0.02 | -0.0225 ± 0.042 | -0.0295 ± 0.054 | -0.015 ± 0.0085 | -0.025 ± 0.03 | -0.021 | 0.0245 ± 0.1 | -0.017 ± 0.0071 | -0.0245 ± 0.044 | 0.0105 ± 0.013 | -0.035 ± 0.033 | 0.02 ± 0.025 | -0.0035 ± 0.054 | -0.041 | -0.116 ± 0.015 | -0.148 ± 0.1 | 0.0215 ± 0.0064 | -0.0125 ± 0.0092 | -0.0295 ± 0.061
BE3C:MMP-1 | 0.0175 ± 0.028 | -0.007 ± 0.016 | 0.0705 ± 0.022 | 0.0525 ± 0.03 | 0.057 ± 0.044 | 0.262 | -0.014 ± 0.035 | 0.0385 ± 0.05 | 0.0445 ± 0.043 | 0.0615 ± 0.028 | -0.0075 ± 0.0064 | 0 ± 0.011 | 0.0275 ± 0.012 | 0.0705 ± 0.011 | 0.111 ± 0.018 | 0.125 ± 0.061 | 0.182 ± 0.038 | 0.157 ± 0.021 | 0.198 ± 0.012
HDF3CGF:CD106/VCAM-1 | -0.068 ± 0.0028 | -0.203 ± 0.049 | -0.317 ± 0.041 | -0.0215 ± 0.013 | -0.132 ± 0.018 | -0.214 | -0.0785 ± 0.0021 | -0.207 ± 0.14 | -0.152 ± 0.026 | -0.291 ± 0.04 | -0.043 ± 0.04 | -0.008 ± 0.023 | -0.0145 ± 0.086 | 0.098 ± 0.0028 | -0.006 ± 0.0085 | -0.145 ± 0.012 | -0.032 ± 0.027 | -0.0925 ± 0.018 | -0.281 ± 0.026
HDF3CGF:EGFR | -0.002 ± 0.016 | -0.0165 ± 0.005 | -0.0055 ± 0.021 | -0.017 ± 0.02 | 0.01 ± 0.011 | -0.013 | 0.0025 ± 0.077 | -0.052 ± 0.025 | -0.0595 ± 0.03 | -0.0175 ± 0.046 | 0.027 ± 0.017 | 0.03 ± 0.021 | 0.003 ± 0.081 | -0.0125 ± 0.016 | -0.045 ± 0.024 | -0.126 ± 0.059 | -0.0055 ± 0.019 | -0.0305 ± 0.012 | -0.0905 ± 0.029
HDF3CGF:CXCL9/MIG | -0.0335 ± 0.019 | -0.176 ± 0.064 | -0.498 ± 0.071 | 0.0055 ± 0.023 | -0.003 ± 0.018 | 0.018 | -0.04 ± 0.03 | -0.136 ± 0.12 | -0.119 ± 0.043 | -0.138 ± 0.073 | 0.004 ± 0.0099 | 0.001 ± 0.0099 | -0.019 ± 0.034 | 0.102 ± 0.017 | 0.0505 ± 0.018 | -0.0155 ± 0.061 | -0.024 ± 0.024 | -0.017 ± 0.02 | -0.116 ± 0.04
